Results reported in patent US20120270237A9, “METHODS FOR THE IDENTIFICATION OF KINASE INTERACTING MOLECULES AND FOR THE PURIFICATION OF KINASE PROTEINS” (Cellzone AG, priority 2009, published 2012).

Columns and labels:
Experiment in all cases: Kinobeads competition binding, HeLa Placenta lysate mix
Design in all cases: endogenous in cells
Details in all cases: 10 μM free compound
[1] = biological target: MAP2K1 (Homo sapiens, UniProt Q02750)
Description: (§1) To one aliquot of cell lysate 10 μM of the free compound (FIG. 3, CZC31326) was added and allowed to bind to proteins in the lysate. Then the affinity matrix with the immobilized compound was added to capture proteins that were not interacting with the previously added free compound. Beads were separated from the lysate and bead bound proteins were eluted in SDS sample buffer and subsequently separated by SDS-Polyacrylamide gel electrophoresis (FIG. 10). Suitable gel bands were cut out and subjected to in-gel proteolytic digestion with trypsin. The second lysate aliquot was processed identically, however no free compound was added (DMSO solvent control). Peptides originating from samples 1 and 2 were labeled with iTRAQ reagents (iTRAQ 114 and iTRAQ 117) and the combined samples were analyzed with a nano-flow liquid chromatography system coupled online to a tandem mass spectrometer (LC-MS/MS) experiment followed by iTRAQ reporter ion quantification in the MS/MS spectra as described in Example 2.

[2] = biological target: T1, NEK9 (Homo sapiens, UniProt Q8TD19)
T1 sequence (Q8TD19 1-979): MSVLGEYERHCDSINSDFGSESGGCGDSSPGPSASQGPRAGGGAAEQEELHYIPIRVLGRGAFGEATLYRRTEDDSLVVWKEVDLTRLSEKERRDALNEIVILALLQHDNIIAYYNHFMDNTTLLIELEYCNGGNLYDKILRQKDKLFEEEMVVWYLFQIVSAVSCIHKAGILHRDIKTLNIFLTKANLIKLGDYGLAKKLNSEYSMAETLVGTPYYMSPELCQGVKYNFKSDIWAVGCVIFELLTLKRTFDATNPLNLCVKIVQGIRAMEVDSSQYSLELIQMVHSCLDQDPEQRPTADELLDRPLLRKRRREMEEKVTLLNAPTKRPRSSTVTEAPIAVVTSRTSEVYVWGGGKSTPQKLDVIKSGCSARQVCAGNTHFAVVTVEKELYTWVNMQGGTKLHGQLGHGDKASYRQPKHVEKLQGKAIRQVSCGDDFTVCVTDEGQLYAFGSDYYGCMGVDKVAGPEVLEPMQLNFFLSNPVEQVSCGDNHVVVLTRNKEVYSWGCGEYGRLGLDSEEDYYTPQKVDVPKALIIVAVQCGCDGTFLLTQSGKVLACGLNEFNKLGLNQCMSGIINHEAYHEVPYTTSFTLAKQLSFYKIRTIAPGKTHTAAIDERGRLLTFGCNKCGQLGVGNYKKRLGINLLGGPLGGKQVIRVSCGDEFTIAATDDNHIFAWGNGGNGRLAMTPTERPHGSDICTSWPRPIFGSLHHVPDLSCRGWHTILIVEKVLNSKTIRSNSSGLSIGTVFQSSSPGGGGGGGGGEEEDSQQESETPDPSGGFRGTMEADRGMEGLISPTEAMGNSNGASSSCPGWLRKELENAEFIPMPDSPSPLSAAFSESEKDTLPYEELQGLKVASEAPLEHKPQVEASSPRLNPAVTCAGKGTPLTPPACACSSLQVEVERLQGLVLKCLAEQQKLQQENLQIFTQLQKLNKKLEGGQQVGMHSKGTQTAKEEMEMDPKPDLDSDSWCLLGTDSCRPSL
Description: as §1

[3] = biological target: CDK5 (Homo sapiens, UniProt Q00535)
Chain of CDK5 (Q00535 whole entry): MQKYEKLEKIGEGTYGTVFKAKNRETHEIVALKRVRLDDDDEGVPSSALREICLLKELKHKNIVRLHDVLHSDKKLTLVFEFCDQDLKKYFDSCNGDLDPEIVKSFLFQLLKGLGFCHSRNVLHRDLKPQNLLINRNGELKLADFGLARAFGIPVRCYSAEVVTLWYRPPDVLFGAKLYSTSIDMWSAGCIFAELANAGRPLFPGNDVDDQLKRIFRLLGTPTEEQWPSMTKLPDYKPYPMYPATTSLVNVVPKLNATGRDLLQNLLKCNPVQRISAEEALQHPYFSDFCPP
Description: as §1

[4] = biological target: FER (Homo sapiens, UniProt P16591)
Chain of FER (P16591 whole entry): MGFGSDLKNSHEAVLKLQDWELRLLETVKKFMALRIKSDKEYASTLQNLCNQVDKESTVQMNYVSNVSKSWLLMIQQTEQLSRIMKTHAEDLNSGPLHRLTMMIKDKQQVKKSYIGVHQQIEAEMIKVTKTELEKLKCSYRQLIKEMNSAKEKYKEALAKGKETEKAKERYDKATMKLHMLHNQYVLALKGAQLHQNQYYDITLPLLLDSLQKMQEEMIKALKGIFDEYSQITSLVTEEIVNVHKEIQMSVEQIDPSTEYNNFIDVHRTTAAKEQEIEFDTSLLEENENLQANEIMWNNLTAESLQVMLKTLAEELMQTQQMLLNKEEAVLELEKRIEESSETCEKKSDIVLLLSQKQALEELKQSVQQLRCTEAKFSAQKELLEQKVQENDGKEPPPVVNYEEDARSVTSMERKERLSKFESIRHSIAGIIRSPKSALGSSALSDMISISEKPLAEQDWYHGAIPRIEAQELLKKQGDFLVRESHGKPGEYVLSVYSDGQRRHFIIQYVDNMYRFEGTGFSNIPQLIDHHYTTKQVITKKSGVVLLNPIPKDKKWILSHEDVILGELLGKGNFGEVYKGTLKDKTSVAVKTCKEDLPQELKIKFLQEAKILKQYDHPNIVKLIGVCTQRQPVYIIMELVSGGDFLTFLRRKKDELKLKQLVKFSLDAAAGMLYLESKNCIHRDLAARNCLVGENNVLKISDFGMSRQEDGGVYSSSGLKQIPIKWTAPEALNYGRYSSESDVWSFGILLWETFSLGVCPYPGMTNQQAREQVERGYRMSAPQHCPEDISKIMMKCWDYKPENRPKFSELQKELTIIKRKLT
Description: as §1

[5] = biological target: T2, TAO3 (Homo sapiens, UniProt Q9H2K8)
T2 sequence (Q9H2K8 1-898): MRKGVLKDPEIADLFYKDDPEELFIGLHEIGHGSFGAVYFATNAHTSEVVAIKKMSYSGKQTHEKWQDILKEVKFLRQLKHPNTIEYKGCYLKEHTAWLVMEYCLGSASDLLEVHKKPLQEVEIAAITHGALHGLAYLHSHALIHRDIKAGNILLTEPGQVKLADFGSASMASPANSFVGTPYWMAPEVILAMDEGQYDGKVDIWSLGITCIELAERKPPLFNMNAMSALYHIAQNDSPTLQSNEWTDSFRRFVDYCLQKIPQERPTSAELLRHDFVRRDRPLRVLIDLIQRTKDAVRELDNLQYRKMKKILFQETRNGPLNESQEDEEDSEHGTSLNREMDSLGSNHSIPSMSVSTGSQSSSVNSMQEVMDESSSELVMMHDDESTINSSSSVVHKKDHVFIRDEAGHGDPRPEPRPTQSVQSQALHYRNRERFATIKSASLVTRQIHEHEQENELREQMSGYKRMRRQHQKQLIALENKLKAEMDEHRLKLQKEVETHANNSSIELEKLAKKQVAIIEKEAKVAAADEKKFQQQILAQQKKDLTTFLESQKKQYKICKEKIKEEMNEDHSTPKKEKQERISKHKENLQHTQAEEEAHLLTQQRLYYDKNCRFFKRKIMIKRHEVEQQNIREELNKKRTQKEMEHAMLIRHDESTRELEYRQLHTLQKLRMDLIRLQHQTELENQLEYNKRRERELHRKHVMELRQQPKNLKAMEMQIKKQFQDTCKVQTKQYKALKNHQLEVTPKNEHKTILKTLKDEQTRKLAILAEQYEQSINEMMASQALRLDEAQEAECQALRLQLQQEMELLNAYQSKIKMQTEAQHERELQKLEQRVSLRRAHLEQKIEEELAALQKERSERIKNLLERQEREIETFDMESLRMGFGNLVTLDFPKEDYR
Description: as §1

[6] = biological target: LYN (Homo sapiens, UniProt P07948)
Chain of LYN (P07948 whole entry): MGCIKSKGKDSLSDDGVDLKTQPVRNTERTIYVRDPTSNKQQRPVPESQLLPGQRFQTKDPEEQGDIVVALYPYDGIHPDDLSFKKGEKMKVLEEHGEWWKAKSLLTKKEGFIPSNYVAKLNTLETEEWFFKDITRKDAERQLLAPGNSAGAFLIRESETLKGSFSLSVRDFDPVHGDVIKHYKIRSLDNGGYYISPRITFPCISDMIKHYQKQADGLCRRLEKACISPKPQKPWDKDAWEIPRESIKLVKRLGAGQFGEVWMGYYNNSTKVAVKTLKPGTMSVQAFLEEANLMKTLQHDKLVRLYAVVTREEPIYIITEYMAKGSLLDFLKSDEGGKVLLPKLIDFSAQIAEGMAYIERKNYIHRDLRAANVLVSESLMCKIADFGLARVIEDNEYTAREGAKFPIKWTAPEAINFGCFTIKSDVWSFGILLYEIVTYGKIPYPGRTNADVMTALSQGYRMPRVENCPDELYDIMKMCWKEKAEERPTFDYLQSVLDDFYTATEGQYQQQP
Description: as §1

Chain of MAP2K1 (Q02750 whole entry): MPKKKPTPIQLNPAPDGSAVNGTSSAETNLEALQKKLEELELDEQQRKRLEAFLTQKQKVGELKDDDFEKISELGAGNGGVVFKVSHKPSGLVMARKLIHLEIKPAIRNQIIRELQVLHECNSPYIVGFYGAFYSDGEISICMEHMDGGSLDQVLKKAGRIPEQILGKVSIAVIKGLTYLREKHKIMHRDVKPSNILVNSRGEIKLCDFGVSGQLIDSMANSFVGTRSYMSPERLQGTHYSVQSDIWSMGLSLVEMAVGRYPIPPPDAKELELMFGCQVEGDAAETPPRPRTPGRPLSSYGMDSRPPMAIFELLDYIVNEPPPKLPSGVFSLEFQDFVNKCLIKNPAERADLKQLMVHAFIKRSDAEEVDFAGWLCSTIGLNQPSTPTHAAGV

inhibition at 10 µM [1]: 83.7% | inhibition at 10 µM [3]: 92.6% | inhibition at 10 µM [4]: 95.3% | inhibition at 10 µM [5]: 94.4% | inhibition at 10 µM [6]: 76.1%
SMILES: CS(=O)(=O)Nc1ccccc1Nc1nc(Nc2cccc(OCCN)c2)ncc1Cl [CZC31326, N-(2-(2-(3-(2-aminoethoxy)phenylamino)-5-chloropyrimidin-4-ylamino)phenyl)methanesulfonamide]
inhibition at 10 µM [2]: 89%
